In PubChem BioAssay AID2005 (Sanford-Burnham Center for Chemical Genomics, 2009):
Calls of active or inactive are those of the source.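 How the source made its calls: active means plate Z score at or below -3, or inhibition of at least 30% at 20 µM; inactive means the rest.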

Assay: EGFP reporter destabilization counter-screen – F442A EGFP cells, fluorescence, counter-screen for p/CIP destabilizer project, dose response (AID 2005);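 further: cells express EGFP alone from a CMV promoter as a counter screen for p/CIP-EGFP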
Conditions: F442A EGFP cells, EGFP fluorescence, 16 h, stronger effect = higher value

SMILES | inhibition (EGFP decrease, at 10 µM) [%] | inhibition (at 20 µM)
c1ccc2c3nnc4n(c-3nc2c1)CCCS4 | 17.5 | 23.7% (inactive)
CCC1(C)Cc2c(c(=O)n(-c3ccccc3)c3ncnc(N)c23)CO1 (stereo not drawn) | 4.6 | -38.9% (inactive)
CCOCCc1nnc(NC(=O)CS(=O)(=O)Cc2ccccc2)s1 | 12 | 6% (inactive)
Cc1ccc(CNC(=O)C2CCCCN2S(=O)(=O)c2ccccc2)cc1 (stereo not drawn) | -17.4 | 4.6% (inactive)
COc1ccc(OC)c(Nc2cc(C)c3ccccc3n2)c1 | 13.3 | 5.4% (inactive)
CCCCN(CC)C(=O)c1cc2cc3ccc(OC)cc3nc2o1 | 23.8 | 25.6% (inactive)
CCC1=C(OC(=O)N(CC)CC)N2C(=O)OC(=NCC(=O)OC)[C@]2(Cc2ccccc2)[C@H]2C1=CC[C@H]1C(=O)N(c3ccccc3)C(=O)[C@H]12 | 8.2 | 2% (inactive)
CC(NC(=O)CN(C)CC(=O)Nc1ccc(F)c(F)c1F)c1ccccc1 (stereo not drawn) | 8 | -8.6% (inactive)
CCOc1ccccc1OCc1nn2c(-c3ccc(C)cc3)nnc2s1 | -2 | -2.8% (inactive)
O=C(Nc1cccc(-c2csc(Nc3ccc(Cl)cc3)n2)c1)c1cc([N+](=O)[O-])cc(C(F)(F)F)c1 | 32.2 | 21.2% (inactive)
Cc1noc(C)c1COC(=O)CNC(=O)c1cccc(F)c1 | 4 | -7.3% (inactive)
O=C(c1ccccc1)N1CCN(C(=O)c2cc3ccccc3o2)CC1 | 8.7 | 17.1% (inactive)
CN1CCn2c1nc(N1CCCCC1)nc2=O | 14.7 | 16.5% (inactive)
C=CCCC(=O)N1CCCC(C(=O)c2cccc(OC)c2)C1 (stereo not drawn) | 20.8 | 2.3% (inactive)
O=C(CN1C(=O)c2ccccc2C1=O)N(CCO)Cc1ccccc1 | -7.7 | 16% (inactive)
COc1ccc([N+](=O)[O-])cc1NC(=O)c1cccs1 | 18.4 | 8.7% (inactive)
O=C(Cc1ccccc1)NC(=S)Nc1cccc(C(F)(F)F)c1 | 14.2 | 16.8% (inactive)
Cc1ccc(CN(Cc2ccccc2)C(=S)NCC(=O)NCc2cccnc2)o1 | 5.8 | 6.9% (inactive)
COC(=O)c1ccc(-c2ccc(CNCC(O)c3ccccc3)o2)cc1 (stereo not drawn) | 8.8 | 7.1% (inactive)
COc1cc(NC(=O)c2ccccc2[N+](=O)[O-])c(C(=O)O)cc1OC | 9.2 | -1.6% (inactive)

SMILES | inhibition (EGFP decrease, at 10 µM) [%] | inhibition (at 20 µM)
Cc1ccc(S(=O)(=O)Oc2ccc(/C=N/NC(=O)c3nn(C)cc3Cl)cc2)cc1 | 17.3 | 17.2% (inactive)
CCOC(=O)N1CCC(NC(=O)C2CCCN(S(=O)(=O)c3cccc4nsnc34)C2)CC1 (stereo not drawn) | 11 | 19% (inactive)
Cc1ccc(S(=O)(=O)Nc2cccc(-c3cn4ccsc4n3)c2)cc1 | 31 | 10.2% (inactive)
C/C(=N\NC(=O)c1cccs1)c1c(O)cc(C)oc1=O | 28.7 | 0.8% (inactive)
Cc1cc(C)nc(Sc2ccc3nnc(C(F)(F)C(F)(F)C(F)(F)F)n3n2)n1 | 40.7 | 15.9% (inactive)
Cc1ccc(N2C(=O)N(CC(=O)Nc3ccc(C)cc3C)C(=O)C2C)cc1 (stereo not drawn) | 28.1 | 22% (inactive)
CC(C)Cc1ccc(C(C)C(N)=NCCc2ccccc2)cc1 (stereo not drawn) | -6.4 | -4.2% (inactive)
CCS(=O)(=O)N1CCN(c2nc(-c3ccccc3)cs2)CC1 | 13.7 | 15.1% (inactive)
Cc1ccccc1CC(=O)Nc1sc(C(C)C)cc1C(=O)N1CCOCC1 | 4.2 | 14.3% (inactive)
CN(C)c1ccc(C(=O)Nc2cc(C(F)(F)F)ccc2-n2cncn2)cc1 | 5 | 10.4% (inactive)
O=C(N/N=C/c1cccc(O)c1)c1ccc(COc2cccc3cccnc23)cc1 | 2.4 | 7.8% (inactive)
CN(C(=O)c1ccc2c(c1)CCN2S(C)(=O)=O)c1ccccc1 | -5.5 | -19.7% (inactive)
O=C(CN(CCc1ccccc1)C(=O)CNS(=O)(=O)c1ccccc1)NCC1CCCO1 (stereo not drawn) | 25.6 | 23.8% (inactive)
Nc1ccc2nc(-c3ccc(-c4nc5ccc(N)cc5[nH]4)cc3)[nH]c2c1 | 15.4 | 25% (inactive)
S=c1[nH]nc(COc2ccccc2)n1/N=C/c1ccc(Cl)cc1Cl | 13.4 | 9.7% (inactive)
Nc1ncnc2c1ncn2[C@H]1C[C@H](O)[C@@H](CO)O1 | 1.2 | 26.2% (inactive)
CC(C)c1csc(CN2CCCC(CNC(=O)c3cccc4ccccc34)C2)n1 (stereo not drawn) | 15 | 4.5% (inactive)
Cc1ccc2c(COC(=O)CNC(=O)c3ccccc3)cc(=O)oc2c1 | 5.9 | -2.9% (inactive)
CCOC(=O)c1c(C)oc2c(F)c(F)c(F)c(F)c2c1=O | 32.1 | 19.8% (inactive)
